The values that follow come from ChEMBL document CHEMBL3352491, “Novel semicarbazides and ureas of primaquine with bulky aryl or hydroxyalkyl substituents: synthesis, cytostatic and antioxidative activity” (Eur J Med Chem, 2014).

A value given as a limit tells only on which side of the number the result lay.

Data set [1] can be described thus: Cytostatic activity against human MIAPaCa2 cells assessed as growth inhibition after 3 to 4 days by MTT assay. Format: functional, cell-based. The note with it: MIA PaCa-2.
Data set [2] relates to CCRF-CEM. Briefly: Cytostatic activity against human CEM cells assessed as growth inhibition after 3 to 4 days by MTT assay. The class given is functional, cell-based. (In general: Formazan colour is commonly taken as a measure of viable cells.)
Data set [3] deals with L1210. Briefly: Cytostatic activity against mouse L1210 cells assessed as growth inhibition after 3 to 4 days by MTT assay. Format: functional, cell-based.
Data set [4] concerns HeLa. Briefly: Cytostatic activity against human HeLa cells assessed as growth inhibition after 3 to 4 days by MTT assay. Format: functional, cell-based.
Data set [5] is described as follows: Cytostatic activity against human Molt4/C8 cells assessed as growth inhibition after 3 to 4 days by MTT assay. The note with it: MOLT-4. Format: functional, cell-based.
The subject of data set [6] is MCF7. The data set is described as follows: Cytostatic activity against human MCF7 cells assessed as growth inhibition after 3 to 4 days by MTT assay. Format: functional, cell-based.
The nature of data set [7]: Antioxidant activity assessed as DPPH scavenging activity at 100 uM after 20 mins by spectrophotometry. Format: physicochemical.
Data set [8] is described as follows: Cytostatic activity against human H460 cells assessed as growth inhibition after 3 to 4 days by MTT assay. Particulars: NCI-H460; call rule not given here. Format: functional, cell-based.
A short description of data set [9]: Antioxidant activity assessed as inhibition of lipid peroxidation at 100 uM by spectrophotometry. The class given is physicochemical.
The subject of data set [10] is SW-620. The data set is described as follows: Cytostatic activity against human SW620 cells assessed as growth inhibition after 3 to 4 days by MTT assay. Format: functional, cell-based.
A short description of data set [11]: Antioxidant activity assessed as DPPH scavenging activity at 100 uM after 60 mins by spectrophotometry. Particulars: 1 h. Format: physicochemical. On the technique in general: The DPPH test is a chemical assay of radical scavenging.
Data set [12] deals with Lipoxygenase (Glycine max, UniProt Q39829). The data set is described as follows: Inhibition of soybean LOX using sodium linoleate as substrate by spectrophotometry.
Data set [13] concerns the target Lipoxygenase (Glycine max) (UniProt Q39829). Briefly: Inhibition of soybean LOX using sodium linoleate as substrate at 100 uM by spectrophotometry.

As a reminder, the IC50 is the concentration that inhibits the measured activity by half. In the case of `COc1ccc(/C(=N/NC(=O)NCCCC(C)Nc2cc(OC)cc3cccnc23)c2ccccc2)cc1` (configuration not stated), the IC50 in data set [1] was 155 µM; in [2], 10 µM; in [3], 34 µM; in data set [4], 129 µM; in [5] it was at least 250 µM; in [6], 5 µM. The IC50 in data set [8] was above 100 µM; in data set [10] it was above 100 µM; in data set [12] (read-out: IC50), 60.5 µM. Also, the Activity in data set [7] came to 19%; in data set [11], 26%. Also, in data set [9], the “inhibition (INH)” value is 77%.

Turning to `COc1cc(NC(C)CCCNC(=O)NNC(=O)NCCO)c2ncccc2c1` (configuration not stated), the IC50 in data set [1] is at least 250 µM; in data set [2] it was above 250 µM; in data set [3] it was above 250 µM; in data set [4], 196 µM; in [5], above 250 µM; in data set [6], 13 µM. Also, the results for the IC50 in data set [8], in [10] and in data set [12] were above 100 µM, above 100 µM and “Not Active”, respectively. Moreover, the Activity entry in data set [7] is listed as “Not Active”; in [11] it was 20%. For the same molecule, the “inhibition (INH)” value in data set [9] is recorded as 27%.

For orientation: inhibition means the change of the read-out against control, counted positive when it falls. A higher inhibition goes with a response far below the control. Turning to `CC(Cc1ccc(O)c(O)c1)C(C)Cc1ccc(O)c(O)c1` (configuration not stated) [NORDIHYDROGUAIARETIC ACID], the Activity in data set [7] was found to be 80%; in data set [11], 91%. Further, the inhibition in data set [13] came out at 84%. Further, the IC50 in data set [12] (read-out: IC50) came to 28 µM.

Regarding `COc1cc(NC(C)CCCNC(=O)NNC(=O)Nc2ccc(Cl)c(C(F)(F)F)c2)c2ncccc2c1` (configuration not stated), the IC50 in [1] was found to be 18 µM; in [2], 14 µM; in [3] it was 19 µM; in [4], 17 µM; in data set [5], 19 µM; in [6], 2 µM. For the same molecule, the IC50 in [8] is 13 µM; in [10] it was 15 µM; in data set [12], “Not Active”. Further, the figures for the Activity in data set [7] and in [11] were 64% and 90%, respectively. Further, the “inhibition (INH)” value in [9] turned out to be 63%.

As to `COc1ccc(/C(=N/NC(=O)NNC(=O)NCCCC(C)Nc2cc(OC)cc3cccnc23)c2ccccc2)cc1` (configuration not stated), the IC50 in [1] came out at 13 µM; in [2], 7.4 µM; in data set [3] it was 6.2 µM; in [4], 18 µM; in [5], 12 µM; in data set [6], 2 µM. The 50% inhibitory concentration (IC50) in data set [8] amounted to 7 µM; in data set [10], 7 µM; in [12] (read-out: IC50), 60.5 µM. Besides, the Activity in data set [7] is 47%; in [11], 64%. For the same molecule, in data set [9], the “inhibition (INH)” value is listed as 78%.
